Source: patent publication US20200289482A1, “CYSTIC FIBROSIS TRANSMEMBRANE CONDUCTANCE REGULATOR MODULATORS FOR TREATING AUTOSOMAL DOMINANT POLYCYSTIC KIDNEY DISEASE” (The Johns Hopkins University, priority 2017, published 2020)

Legend:
[1] = tested on: PN cells; test: BrdU cell proliferation assay; assay type: cell-based, mouse; conditions: 1 and 10 μM vs DMSO-treated cells
Description: FIG. 3A, FIG. 3B, FIG. 3C, and FIG. 3D show cell proliferation is reduced by VX-809. (FIG. 3A-FIG. 3B) Proliferation in kidneys of Pkd1^fl/fl; Pax8^rtTA; TetO-cre mice. Representative images of Ki67 (a cellular marker for proliferation) staining of PN21 kidney sections from DMSO- and VX-809-treated mice. Arrows indicate Ki67-positive cells. Pictures were acquired with a Zeiss microscope equipped with 20× objective. (FIG. 3C) Summary data for Ki67-positive cells. Columns represent averages±standard errors of DMSO (vehicle)-treated (n=3) and VX-809-treated (n=3) mice. Statistical analysis was performed using a two-tailed Student's t test. (FIG. 3D) Proliferation in PN cells. PN cells were treated with VX-809 or DMSO). The bromodeoxyuridine (BrdU) concentration in the cells was measured by using a BrdU cell proliferation assay kit (Millipore Sigma #2750) according to the manufacturer's protocol. Columns represent averages±SEs of the OD of BrdU at 450/550 […]. Data were analyzed using Student's t-test, with n=5-7. Methods were described previously (62). […]; **P<0.01;
A hallmark of the cysts in ADPKD is an increase in proliferation in response to cAMP (23). Therefore, it was determined whether VX-809 would affect proliferation.

[2] = tested on: cAMP in PC1 conditional knockout mouse kidneys; test: cAMP levels in mouse kidney tissue; assay type: in vivo; conditions: kidney samples from mice of FIG. 1 (VX-809 30 mg/kg)
Method: FIG. 4A, FIG. 4B, FIG. 4C, FIG. 4D, and FIG. 4E show (FIG. 4A-FIG. 4B) cAMP levels are reduced by VX-809. (FIG. 4A) cAMP levels in mouse tissue were reduced by VX-809. The kidney samples (n=6) analyzed were taken from those depicted in FIG. 1. (FIG. 4B) Confluent PN and PH cells were treated with VX-809 (10 μM) or DMSO for 16 h and then treated with forskolin (100 μM) for 30 min before the cells were harvested for the assay. Columns represent means±SEM. Statistical analysis was performed using a two-tailed Student's t-test. Each set of data is from three individual wells; Note that resting cAMP is greater in PN vs PH cells as previously shown (25). Also note that forskolin caused a large increase in cAMP. […] The data were analyzed by non-parametric t-test. […]
It has been shown previously in both animal and cell culture models of ADPKD that cells lacking functional PC1 have elevated cAMP levels when compared to normal (24). To assess the effect of CFTR correctors, cAMP activity was measured in PC1 conditional knockout mouse kidneys and in PN cells that were either left untreated or treated with VX-809. […]
Confluent cells were treated with VX-809 (10 μM) or DMSO for 16 h before being harvested for assay. Cyclic AMP levels were measured with a direct cAMP Enzyme Immunoassay Kit (Sigma, # CA200) according to the manufacturer's protocol. The results are expressed as pmole/ml. […]

[3] = tested on: Hsp90; test: Cycloheximide chase, disappearance of Hsp90 in PN cells; assay type: cell-based, mouse; conditions: VX-809 10 μM with cycloheximide 25 μM
Method: (§1) FIG. 9A, FIG. 9B, FIG. 9C, FIG. 9D, FIG. 9E, FIG. 9F, FIG. 9G, and FIG. 9H show Hsp27, HSp70, and Hsp90 expression in PN cells treated with VX-809 and/or cycloheximide. (A) Pkd1 null (PN) cells were treated with VX-809 (10 μM) and/or with cycloheximide (25 μM) for indicated time points before being harvested for the assay. (FIG. 9A) Western blot showing expression of Hsp27, Hsp70, and Hsp90 in VX-809-(16 h), cycloheximide-treated, or control PN cells. ((FIG. 9B. (FIG. 9C, and (FIG. 9D) Columns represent averages±standard errors of Hsp27, Hsp70, and Hsp90 expression in cells treated with VX-809 and/or cycloheximide. ((FIG. 9E) Western blot showing expression of Hsp27, Hsp70, and Hsp90 in PN cells treated with VX-809+cycloheximide or control PN cells. ((FIG. 9F, (FIG. 9G, and (FIG. 9H) Columns represent averages±standard errors of Hsp27, Hsp70, and Hsp90 expression in cells treated only with cycloheximide or in control PN cells. Data were analyzed by non-parametric t-test. The experiments were repeated 3-5 times. *P<0.05, **P<0.01;
(§2) To gain more insight into the mechanism whereby VX-809 alters Hsp protein levels, translation was inhibited by using cycloheximide (35) and the disappearance of the three Hsps was monitored. […] Hsp 90 was reduced by approximately 25%, and Hsp27 was unchanged.

[4] = tested on: Hsp27; test: Cycloheximide chase, disappearance of Hsp27 in PN cells; assay type: cell-based, mouse; conditions: VX-809 10 μM with cycloheximide 25 μM
Method: as §1, §2

[5] = biological target: CFTR (Mus musculus, UniProt P26361); test: CFTR expression in PN cells; assay type: cell-based; design: endogenous in cells; host or cells: PN (Pkd1-null mouse proximal tubule) cells; conditions: 10 μM VX-809 for 16 h vs control PN cells
CFTR, sequence (P26361 whole entry): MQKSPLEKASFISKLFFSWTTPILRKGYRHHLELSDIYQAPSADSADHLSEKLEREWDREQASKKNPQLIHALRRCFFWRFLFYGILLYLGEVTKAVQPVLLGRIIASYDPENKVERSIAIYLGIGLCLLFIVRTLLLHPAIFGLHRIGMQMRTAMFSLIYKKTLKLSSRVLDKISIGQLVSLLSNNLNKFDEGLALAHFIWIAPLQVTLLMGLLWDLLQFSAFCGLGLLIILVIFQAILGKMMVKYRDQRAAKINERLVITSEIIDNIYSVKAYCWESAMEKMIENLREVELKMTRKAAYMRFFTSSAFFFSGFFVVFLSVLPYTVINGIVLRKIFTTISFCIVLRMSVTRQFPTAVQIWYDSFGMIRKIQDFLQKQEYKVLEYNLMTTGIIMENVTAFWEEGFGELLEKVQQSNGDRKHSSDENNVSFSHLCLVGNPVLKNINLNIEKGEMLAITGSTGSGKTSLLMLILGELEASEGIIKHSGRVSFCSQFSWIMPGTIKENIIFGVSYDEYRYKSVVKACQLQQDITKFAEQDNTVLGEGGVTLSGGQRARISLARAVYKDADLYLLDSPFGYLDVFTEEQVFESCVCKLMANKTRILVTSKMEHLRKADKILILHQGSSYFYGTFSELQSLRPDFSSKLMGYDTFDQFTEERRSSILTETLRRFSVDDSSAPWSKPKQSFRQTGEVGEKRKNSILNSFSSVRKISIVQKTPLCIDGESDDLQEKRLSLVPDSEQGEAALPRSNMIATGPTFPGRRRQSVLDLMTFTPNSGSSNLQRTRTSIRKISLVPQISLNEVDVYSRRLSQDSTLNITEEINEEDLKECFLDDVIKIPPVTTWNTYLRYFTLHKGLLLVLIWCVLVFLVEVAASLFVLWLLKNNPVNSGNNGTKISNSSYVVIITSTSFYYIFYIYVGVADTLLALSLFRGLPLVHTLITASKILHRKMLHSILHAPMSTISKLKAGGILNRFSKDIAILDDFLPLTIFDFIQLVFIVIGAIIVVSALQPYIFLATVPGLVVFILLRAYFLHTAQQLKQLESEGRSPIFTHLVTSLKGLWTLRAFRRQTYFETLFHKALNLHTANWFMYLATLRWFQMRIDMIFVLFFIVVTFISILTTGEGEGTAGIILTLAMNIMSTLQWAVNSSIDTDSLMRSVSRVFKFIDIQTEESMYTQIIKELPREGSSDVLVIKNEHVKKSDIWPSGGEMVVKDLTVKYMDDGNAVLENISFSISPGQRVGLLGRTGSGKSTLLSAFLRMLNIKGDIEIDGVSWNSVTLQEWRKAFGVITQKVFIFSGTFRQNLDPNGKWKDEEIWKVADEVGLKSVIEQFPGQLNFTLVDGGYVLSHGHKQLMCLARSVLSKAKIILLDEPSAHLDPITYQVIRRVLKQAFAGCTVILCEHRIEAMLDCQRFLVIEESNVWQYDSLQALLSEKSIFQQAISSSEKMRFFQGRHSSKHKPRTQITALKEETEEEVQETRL
Method: FIG. 19A, FIG. 19B, FIG. 19C, and FIG. 19D show CFTR expression in PN cells treated with VX-809 (10 μM) for 16 h.
The expression of CFTR was evaluated in PN cells treated with VX-809 and control PN cells. PN cells were treated with 10 μM VX-809 for 16 h or a control.

## lumacaftor [VX-809]
[1]
  cell proliferation (BrdU): significantly inhibit cell proliferation
[2]
  cAMP levels in mouse kidneys: significantly decreased the cAMP levels
[3]
  Hsp 90 reduction over the 8-h period: approximately 25%
[4]
  Hsp27 level over the 8-h period: unchanged
[5]
  CFTR expression: enhanced CFTR expression
